Assay: Antiosteoclast activity in mouse BMM cells assessed as reduction of RANKL-induced osteoclasts differentiation by measuring TRAP positive multinucleated cells after 4 days by light microscopy

IC50 [nM]	Structure (SMILES)
> 20000	CC(c1cc2ccccc2s1)N(O)C(N)=O (racemic) [Leutrol]
560	N/C(=N\O)c1ccc(OCCCCC(=O)Nc2ccc3oc(Nc4ccccc4)nc3c2)cc1
1310	CCc1ccc(Nc2nc3cc(NC(=O)CCCCOc4ccc(/C(N)=N/O)cc4)ccc3o2)cc1
580	COc1ccc(Nc2nc3cc(NC(=O)CCCCOc4ccc(/C(N)=N/O)cc4)ccc3o2)cc1
